# Test results published in patent US12097215B2, “Antibacterial composition and its use in treating bacterial infections” (Vector Vitale IP LLC, priority 2017, dated 2024).
# Where two headings read alike, the source gives them in different places. Marks after values point to notes of the source that are not given here.
# Legend:
# S. aureus ATCC 25923 [1] = experiment: MIC by serial dilutions in broth (visible growth); assay type: cell-based; settings: for MIC: concentration of ^64Zne, Tables 1-5;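 as to all read-outs here: broth tubes inoculated at about 5×10^5 CFU/ml, incubated 16-24 h at 35 °C in air, growth judged by transmitted light against an unexposed refrigerated inoculum tube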
# Protocol: (§3) The minimum inhibitory concentration (MIC) and minimum bactericidal concentration (MBC) of the antibacterial composition enriched for the light isotope zinc ^64Zne was evaluated in the experiment. […] S. aureus ATCC 25923, E. coli ATCC 25922 and P. aeruginosa ATCC 27853 were used as test cultures.
# (§4) The studies were carried out using the method of serial dilutions in broth. To determine sensitivity of microorganisms to the antibacterial composition, 0.5 ml of broth was placed into each tube. The number of tubes was determined based on the desired number of dilutions and was increased by one for the “negative” control (no test composition). Series of two-fold serial dilutions of the test variants of the antibacterial composition were used and concentrations ranging from 450 mcg ^64Zne/ml to 0.000107 mcg ^64Zne/ml were obtained.
# (§5) Reference test strains of S. aureus ATCC 25923, E. coli ATCC 25922 and P. aeruginosa ATCC 27853 were incubated in Mueller-Hinton liquid broth at 37° C. for 24 hours. Standard bacterial suspension equivalent to 0.5 McFarland standard diluted 100-fold with the broth was used for the inoculation of the tubes after which the concentration of microorganism in it was approximately 10^6 CFU/ml.
# (§6) 0.5 ml of inoculum was added to each tube containing 0.5 ml of the appropriate dilution of a solution of the ^64Zn-enriched salt of interest. […] The final concentration of the microorganism in each tube was approximately 5×10^5 CFU/ml.
# (§7) The tubes were incubated at 35° C. in air for 16-20 or 20-24 hours (depending on the bacterial strain).
# (§8) To determine the presence of microorganism growth the test tubes with inoculum were viewed under transmitted light. Transmitted light was measured by spectrophotometry. The growth of culture in the presence of antibacterial compositions based on ^64Zne was compared with the reference test tube (“negative” control), containing the original inoculum and stored in the refrigerator. The MIC was determined as the lowest concentration of ^64Zne that inhibits visible growth of the microorganism. Both gram-positive (S. aureus) and gram-negative bacteria (P. aeruginosa, E. coli) were used in the experiments described below.
# (§9) That is, ^64Zne in the form of a salt was compared with a composition that contains zinc with a natural distribution of isotopes. […] Relevant samples containing salt of natural zinc with EDDA and natural zinc sulfate were used for the comparison.
# (§10) The following commercial antibacterial medications were used for the study: azithromycin and ceftriaxone and norfloxacin. The initial concentration of 3000 mcg/ml was used for the samples of all the above compounds. […] Serial dilutions of the above antibacterial compounds were also prepared in the same way as for the antibacterial composition of the invention. The same pathogenic strains of S. aureus ATCC 25923, E. coli ATCC 25922, P. aeruginosa ATCC 27853 were used for the study.
# E. coli ATCC 25922 [2] = experiment: MIC by serial dilutions in broth (visible growth); assay type: cell-based; settings: for MIC: concentration of ^64Zne, Tables 1-5;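 as to all read-outs here: broth tubes inoculated to about 5×10^5 CFU/ml, incubated at 35 °C for 16-24 h, growth judged by transmitted light versus an untreated inoculum reference tube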
# Protocol: as §3, §4, §5, §6, §7, §8, §9, §10
# S. aureus ATCC 25923 [3] = experiment: MBC by plating tube contents on Mueller-Hinton medium; assay type: cell-based; settings: Table 6
# Protocol: (§1) To evaluate the bactericidal action of the antibacterial composition based on light isotope ^64Zne the minimum bactericidal concentration (MBC) was determined by plating out 0.1 ml of the contents of each tube containing the antibacterial composition on Mueller-Hinton medium. The incubation was at 37° C. for 24 h.
# (§2) The MBC of the test samples was determined as the lowest concentration at which there was no growth on Mueller-Hinton agar medium.
# P. aeruginosa ATCC 27853 [4] = experiment: as above; assay type: cell-based; settings: Table 6
# Protocol: as §1, §2
# E. coli ATCC 25922 [5] = experiment: as above; assay type: cell-based; settings: Table 6
# Protocol: as §1, §2
# P. aeruginosa ATCC 27853 [6] = experiment: MIC by serial dilutions in broth (visible growth)
compound,measurement,setting,value
NC(CCC(=O)[O-])C(=O)[O-].[64Zn+2] (centres unmarked) [^64Zne glutamate],visible growth,S. aureus ATCC 25923 [1]; ^64Zne 0.00018 mcg/ml,+
same,visible growth,S. aureus ATCC 25923 [1]; ^64Zne 0.00036 mcg/ml,+
same,visible growth,S. aureus ATCC 25923 [1]; ^64Zne 0.00072 mcg/ml,+
same,visible growth,S. aureus ATCC 25923 [1]; ^64Zne 0.0014 mcg/ml,+
same,visible growth,S. aureus ATCC 25923 [1]; ^64Zne 0.0029 mcg/ml,+
same,visible growth,S. aureus ATCC 25923 [1]; ^64Zne 0.0057 mcg/ml,+
same,visible growth,S. aureus ATCC 25923 [1]; ^64Zne 0.011 mcg/ml,+
same,visible growth,S. aureus ATCC 25923 [1]; ^64Zne 0.023 mcg/ml,+
same,visible growth,S. aureus ATCC 25923 [1]; ^64Zne 0.046 mcg/ml,−
same,visible growth,S. aureus ATCC 25923 [1]; ^64Zne 0.092 mcg/ml,−
same,visible growth,S. aureus ATCC 25923 [1]; ^64Zne 0.18 mcg/ml,−
same,visible growth,S. aureus ATCC 25923 [1]; ^64Zne 0.37 mcg/ml,−
same,visible growth,S. aureus ATCC 25923 [1]; ^64Zne 0.73 mcg/ml,−
same,visible growth,S. aureus ATCC 25923 [1]; ^64Zne 1.46 mcg/ml,−
same,visible growth,S. aureus ATCC 25923 [1]; ^64Zne 2.93 mcg/ml,−
same,visible growth,S. aureus ATCC 25923 [1]; ^64Zne 5.86 mcg/ml,−
same,visible growth,S. aureus ATCC 25923 [1]; ^64Zne 11.72 mcg/ml,−
same,visible growth,S. aureus ATCC 25923 [1]; ^64Zne 23.44 mcg/ml,−
same,visible growth,S. aureus ATCC 25923 [1]; ^64Zne 46.88 mcg/ml,−
same,visible growth,S. aureus ATCC 25923 [1]; ^64Zne 93.75 mcg/ml,−
same,visible growth,S. aureus ATCC 25923 [1]; ^64Zne 187.5 mcg/ml,−
same,visible growth,S. aureus ATCC 25923 [1]; ^64Zne 375 mcg/ml,−
same,MIC,S. aureus ATCC 25923 [1],0.0458 µg/mL
same,visible growth,E. coli ATCC 25922 [2]; ^64Zne 0.00018 mcg/ml,+
same,visible growth,E. coli ATCC 25922 [2]; ^64Zne 0.00036 mcg/ml,+
same,visible growth,E. coli ATCC 25922 [2]; ^64Zne 0.00072 mcg/ml,+
same,visible growth,E. coli ATCC 25922 [2]; ^64Zne 0.0014 mcg/ml,+
same,visible growth,E. coli ATCC 25922 [2]; ^64Zne 0.0029 mcg/ml,+
same,visible growth,E. coli ATCC 25922 [2]; ^64Zne 0.0057 mcg/ml,−
same,visible growth,E. coli ATCC 25922 [2]; ^64Zne 0.011 mcg/ml,−
same,visible growth,E. coli ATCC 25922 [2]; ^64Zne 0.023 mcg/ml,−
same,visible growth,E. coli ATCC 25922 [2]; ^64Zne 0.046 mcg/ml,−
same,visible growth,E. coli ATCC 25922 [2]; ^64Zne 0.092 mcg/ml,−
same,visible growth,E. coli ATCC 25922 [2]; ^64Zne 0.18 mcg/ml,−
same,visible growth,E. coli ATCC 25922 [2]; ^64Zne 0.37 mcg/ml,−
same,visible growth,E. coli ATCC 25922 [2]; ^64Zne 0.73 mcg/ml,−
same,visible growth,E. coli ATCC 25922 [2]; ^64Zne 1.46 mcg/ml,−
same,visible growth,E. coli ATCC 25922 [2]; ^64Zne 2.93 mcg/ml,−
same,visible growth,E. coli ATCC 25922 [2]; ^64Zne 5.86 mcg/ml,−
same,visible growth,E. coli ATCC 25922 [2]; ^64Zne 11.72 mcg/ml,−
same,visible growth,E. coli ATCC 25922 [2]; ^64Zne 23.44 mcg/ml,−
same,visible growth,E. coli ATCC 25922 [2]; ^64Zne 46.88 mcg/ml,−
same,visible growth,E. coli ATCC 25922 [2]; ^64Zne 93.75 mcg/ml,−
same,visible growth,E. coli ATCC 25922 [2]; ^64Zne 187.5 mcg/ml,−
same,visible growth,E. coli ATCC 25922 [2]; ^64Zne 375 mcg/ml,−
same,visible growth,E. coli ATCC 25922 [2]; ^64Zne 750 mcg/ml,−
same,MIC,E. coli ATCC 25922 [2],0.0057 µg/mL
same,MBC,S. aureus ATCC 25923 [3],0.046* mcg ^64Zne/ml
same,MBC,P. aeruginosa ATCC 27853 [4],>750 mcg ^64Zne/ml
same,MBC,E. coli ATCC 25922 [5],0.37* mcg ^64Zne/ml
same,bacteriostatic activity (in words),P. aeruginosa ATCC 27853 [6],best results
same,MIC,"P. aeruginosa ATCC 27853 [6]; concentration of ^64Zne, Tables 1-5",0.183 µg/mL
NC(CC(=O)[O-])C(=O)[O-].[64Zn+2] (racemic) [^64Zne aspartate],MBC,S. aureus ATCC 25923 [3],0.023* mcg ^64Zne/ml
same,MBC,P. aeruginosa ATCC 27853 [4],>750 mcg ^64Zne/ml
same,MBC,E. coli ATCC 25922 [5],0.73* mcg ^64Zne/ml
NC(CC(=O)O)C(=O)O (centres unmarked) [^64Zne aspartate],MIC,"S. aureus ATCC 25923 [1]; Staphylococcus aureus, ATCC25923, read-out: MIC",0.0057 µg/mL
same,visible growth,S. aureus ATCC 25923 [1]; ^64Zne 0.00018 mcg/ml,+
same,visible growth,S. aureus ATCC 25923 [1]; ^64Zne 0.00036 mcg/ml,+
same,visible growth,S. aureus ATCC 25923 [1]; ^64Zne 0.00072 mcg/ml,+
same,visible growth,S. aureus ATCC 25923 [1]; ^64Zne 0.0014 mcg/ml,+
same,visible growth,S. aureus ATCC 25923 [1]; ^64Zne 0.0029 mcg/ml,+
same,visible growth,S. aureus ATCC 25923 [1]; ^64Zne 0.0057 mcg/ml,−
same,visible growth,S. aureus ATCC 25923 [1]; ^64Zne 0.011 mcg/ml,−
same,visible growth,S. aureus ATCC 25923 [1]; ^64Zne 0.023 mcg/ml,−
same,visible growth,S. aureus ATCC 25923 [1]; ^64Zne 0.046 mcg/ml,−
same,visible growth,S. aureus ATCC 25923 [1]; ^64Zne 0.092 mcg/ml,−
same,visible growth,S. aureus ATCC 25923 [1]; ^64Zne 0.18 mcg/ml,−
same,visible growth,S. aureus ATCC 25923 [1]; ^64Zne 0.37 mcg/ml,−
same,visible growth,S. aureus ATCC 25923 [1]; ^64Zne 0.73 mcg/ml,−
same,visible growth,S. aureus ATCC 25923 [1]; ^64Zne 1.46 mcg/ml,−
same,visible growth,S. aureus ATCC 25923 [1]; ^64Zne 2.93 mcg/ml,−
same,visible growth,S. aureus ATCC 25923 [1]; ^64Zne 5.86 mcg/ml,−
same,visible growth,S. aureus ATCC 25923 [1]; ^64Zne 11.72 mcg/ml,−
same,visible growth,S. aureus ATCC 25923 [1]; ^64Zne 23.44 mcg/ml,−
same,visible growth,S. aureus ATCC 25923 [1]; ^64Zne 46.88 mcg/ml,−
same,visible growth,S. aureus ATCC 25923 [1]; ^64Zne 93.75 mcg/ml,−
same,visible growth,S. aureus ATCC 25923 [1]; ^64Zne 187.5 mcg/ml,−
same,visible growth,S. aureus ATCC 25923 [1]; ^64Zne 375 mcg/ml,−
same,MIC,"E. coli ATCC 25922 [2]; Escherichia coli, ATCC25922, read-out: MIC",0.0229 µg/mL
same,visible growth,E. coli ATCC 25922 [2]; ^64Zne 0.00018 mcg/ml,+
same,visible growth,E. coli ATCC 25922 [2]; ^64Zne 0.00036 mcg/ml,+
same,visible growth,E. coli ATCC 25922 [2]; ^64Zne 0.00072 mcg/ml,+
same,visible growth,E. coli ATCC 25922 [2]; ^64Zne 0.0014 mcg/ml,+
same,visible growth,E. coli ATCC 25922 [2]; ^64Zne 0.0029 mcg/ml,+
same,visible growth,E. coli ATCC 25922 [2]; ^64Zne 0.0057 mcg/ml,+
same,visible growth,E. coli ATCC 25922 [2]; ^64Zne 0.011 mcg/ml,+
same,visible growth,E. coli ATCC 25922 [2]; ^64Zne 0.023 mcg/ml,−
same,visible growth,E. coli ATCC 25922 [2]; ^64Zne 0.046 mcg/ml,−
same,visible growth,E. coli ATCC 25922 [2]; ^64Zne 0.092 mcg/ml,−
same,visible growth,E. coli ATCC 25922 [2]; ^64Zne 0.18 mcg/ml,−
same,visible growth,E. coli ATCC 25922 [2]; ^64Zne 0.37 mcg/ml,−
same,visible growth,E. coli ATCC 25922 [2]; ^64Zne 0.73 mcg/ml,−
same,visible growth,E. coli ATCC 25922 [2]; ^64Zne 1.46 mcg/ml,−
same,visible growth,E. coli ATCC 25922 [2]; ^64Zne 2.93 mcg/ml,−
same,visible growth,E. coli ATCC 25922 [2]; ^64Zne 5.86 mcg/ml,−
same,visible growth,E. coli ATCC 25922 [2]; ^64Zne 11.72 mcg/ml,−
same,visible growth,E. coli ATCC 25922 [2]; ^64Zne 23.44 mcg/ml,−
same,visible growth,E. coli ATCC 25922 [2]; ^64Zne 46.88 mcg/ml,−
same,visible growth,E. coli ATCC 25922 [2]; ^64Zne 93.75 mcg/ml,−
same,visible growth,E. coli ATCC 25922 [2]; ^64Zne 187.5 mcg/ml,−
same,visible growth,E. coli ATCC 25922 [2]; ^64Zne 375 mcg/ml,−
same,visible growth,E. coli ATCC 25922 [2]; ^64Zne 750 mcg/ml,−
same,bacteriostatic activity (in words),P. aeruginosa ATCC 27853 [6],best results
same,MIC,"P. aeruginosa ATCC 27853 [6]; Pseudomonas aeruginosa, ATCC27853",0.732 µg/mL
